We go through ten compounds from US6379665B1, “Phospholipase D polypeptide and DNA sequences” (Onyx Pharmaceuticals, Inc., priority 1996, dated 2002).

pEC50: −log10 of the molar value.

In one test the test system is PLD1. The experiment in a line: basic PLD assay with purified PLD1 and activators (headgroup-labeled phosphatidylcholine). Also noted: increase in maximal effect of PKC- on PLD1: dose or concentration left out as unconfirmed. Type of test: biochemical, human. To be noted: for lipid content giving maximal activation of PLD1: lipid fraction of vesicles; for stimulation of PLD1 activity by lipid: vesicles with 7% acidic lipid in PE/PS background. The procedure:
The basic PLD assay was performed as described in Hammond, J. Biol. Chem. 270: 29640-43 (1995) using headgroup-labeled phosphatidyl-choline. Lipids were prepared and labeled. Labeled choline was obtained from American Radiolabelled Chemicals Inc. (Catalog No. ART 284) and extracted with chloroform and methanol 100 ml chloroform/100 ml methanol/90 ml water (100,000 dpm/assay; 1.6 ml). The mixture was vortexed, spun and the bottom layer collected and added to the lipid mixture to give a final concentration of 67 mM PE (Avanti Polar Lipids, Alabaster, Ala., catalog no 850757), 7.6 mM PIP2 (suspended in 20 mM Hepes, pH 7) and 5.4 mM PC (Avanti catalog no 850457). The labeled choline/lipid mixture was sonicated and vortexed until the lipids are dissolved. Sf9 cells were plated onto large flasks (30×10^6 cells/flask) and left to adhere. Once adhered, medium was removed and the cells were infected with virus (at 1:5 or 1:10) for 1 hour with gentle rocking. After that time, virus was removed and fresh medium added, and the cells left to grow for 48 hours at 27 C. Medium was removed from the flask and the cells were washed once with PBS and then lysed in 5 ml lysis buffer (25 mM Tris, 5 mM EDTA, pH 7.5). Cells were scraped out of the flask, placed on ice, sonicated for 10 seconds and centrifuged in a […] centrifuge for 10 minutes at 700 rpm. Supernatant was removed and spun at 30,000 rpm for 60 minutes. Supernatant from this second centrifugation was then removed, and the pellet was resuspended in 0.5 ml lysis buffer, votexed and allowed to settle out.
For the assay, the resulting supernatant containing PLD1 enzyme (1-10 ml) was combined with G-protein(s), 20 ml assay buffer (30 mM Na-Hepes, pH 7.5, 3 mM EGTA, 80 mM KCl, 1 mM DTT, 3.0 mM MgCl2 and 2.0 mM CaCl2) and 10 mM Hepes to make a total volume of 50 ml. 50 ml of the labeled lipid mixture was added, vortexed thoroughly, and incubated at 37 C. for 30 minutes. The reaction was stopped by adding 200 ml of 10% TCA and 100 ml of 10 mg/ml BSA and centrifugation for 5 minutes at 10,000 rpm. […] of the supernatant was removed and counted in 2 ml of scintillation fluid using a LKB scintillation counter for 60 seconds. This was the basic assay used for the following experiments; any modifications were as described below.
To investigate the dependence of enzyme activity on calcium and magnesium, the concentrations of calcium and magnesium ions of the assay medium were varied. For some assays the lipid component of the vesicles was altered. Ptdins (4,5)P2 was purified from a lipid extract of bovine brain as described in Hammond, supra. Synthetic Ptdins (3,4,5)P3 was obtained from Glenn Prestwich, Dept. of Chemistry, SUNY Stony Brook. [^32P]-labeled phospholipids were isolated from extracts of U937 cells labeled overnight with [^32P] PO4 2- as described in Hammond, supra.
Vesicles containing 7% acidic lipid in a background of PE/PS were employed in the foregoing assay. The lipids tested were PI(4,5)P2, PI(3,4,5)P3, PI4P and PI.
ARF-stimulated PLD1activity was determined as the free concentrations of these ions were varied in the assay medium. PLD1 activity was insensitive to changes in Ca^2+ concentration over a side range (<10^−8 M to 10^−2 M). By contrast, ARF-stimulated PLD1 activity was dependent on Mg^2+ with half-maximal activity observed at approximately 10^−4 M.
PLD1 was incubated with increasing concentrations of purified GTP S-activated ARF1(ADP-ribosylation factor 1), RhoA, Rac1 and cdc42. […] RhoA and Rac1 stimulated the enzyme approximately 10- and 13-fold respectively and cdc42 produced an approximately 5-fold activation. Effects of ARF and Rac1 were clearly saturable and, although the concentrations of purified RhoA and cdc42 obtained limited the final concentrations achieved in the assay, at the highest concentrations used, effects of these activators also appeared to be approaching saturation. Activation of PLD1 by these G-proteins was strictly dependent on GTP S. […]

The test system of the next test is HL-60 cells. The experiment in a line: RT-PCR quantification of hPLD2 during dbcAMP-induced HL-60 cell differentiation. The format is cell-based, human. To be noted: 0.5 mM dbcAMP. The procedure:
From the data of Example 7, it was known that a human analog of mPLD2 existed. mPLD2 primers were made from the expressed sequence tags existing in GenBank. To analyze changes in the levels of hPLD2 activity during HL-60 cell differentiation induced by dcbAMP, HL-60 cells maintained in RPMI-1640 medium supplemented with 10% fetal bovine serum, 100 units.ml penicillin and 100 µg/ml streptomycin in a humidified atmosphere containing 5% CO2, at 37 C. were grown in RPMI-1640 medium without fetal bovine serum for 24 hours. Differentiation was initiated by the addition of 0.5 mM dbcAMP. Levels of hPLD2 were quantified later by RT-PCR. Total RNA was isolated from the HL-60 cells at the exponential growth stage by the acid guanidine thiocyanate method following the protocol of Chomczynski, Anal. Biochem. 162:156-62(1992). Two g of RNA was reverse transcribed by using random hexamer mixed primers. The number of amplification cycles were determined to individual primer sets in order to maintain exponential rate of product amplification. Amplified DNA fragments were subjected to electrophoresis on 1.5% agarose gel and visualized by ethidium bromide staining. The intensity of bands was quantified by a densitometer (Atto Densitograph, Tokyo, Japan). Primer E (Forward):
5′[…] 3′. Primer F (reverse):
5′[…] 3′. Amplification conditions used were 94 C. for 30 seconds, 60 C. for 1 minute, and 72 C. for 1 minute; 25-27 cycles.

Regarding PI(3,4,5)P3, in the test with PLD1, the “lipid content giving maximal activation of PLD1” value was “approximately 7%” and the “stimulation of PLD1 activity by lipid” value is recorded as “stimulated”.

As for PI(4,5)P2, in the test on PLD1, the “lipid content giving maximal activation of PLD1” value is recorded as “approximately 7%” and the “stimulation of PLD1 activity by lipid” value is given as “stimulated”.

Take “ARF1: Human ARF1, bacterially-expressed and purified G-protein, GTP S-activated”: the “stimulation of PLD1 (maximal, concentration series)” value in the test with PLD1 (GTP S-activated G-protein, increasing concentrations) is on record as “approximately 50 fold”. Moreover, in the test with PLD1 (maximally effective concentration: ARF1 4.7 M, RhoA 3.8 M, Rac1 5.3 M, cdc42 5.5 M, PKC- 0.043 M), the “activation of PLD1 by activator alone” value is given as 49 fold. Moreover, the “activation of PLD1 over basal combined with PKC-” value in the test on PLD1 (plus maximally effective PKC-) was 145 fold.

As to `[Mg+2]` [Mg^2+], in the test with PLD1 (ARF-stimulated PLD1, free ion concentration, read-out: concentration for half-maximal ARF-stimulated PLD1 activity), the pEC50 is around 4.00.

As to hPLD2: human analog of mPLD2, the “increase in level (printed as activity) on day 1” value in the test with HL-60 cells (day 1, RT-PCR) was “approximately 8 fold”. Also, the “increase in level (printed as activity) on day 2” value in the test on HL-60 cells (day 2, RT-PCR) is listed as “approximately 12 fold”. Moreover, the “increase in level (printed as activity) on day 3” value in the test with HL-60 cells (day 3, RT-PCR) is given as “approximately 20 fold”.

`O=P(O)(O)O[C@@H]1[C@H](O)[C@H](O)[C@@H](OP(=O)(O)O)[C@H](OP(=O)(O)O)[C@H]1O` [inositol 1,4,5 trisphosphate]: in the test with PLD1 (soluble, concentrations up to […]), the “activation of PLD1 or block of activation by PI(4,5)P2 or PI(3,4,5)P3” value is given as “neither activated PLD1 nor blocked activation”.

On to phosphotidylinositol [PI], for which the “stimulation of PLD1 activity by lipid” value with PLD1 is “Only PI(4,5)P2 and PI(3,4,5)P3 stimulated”.

As for `[Ca+2]` [Ca^2+], the “sensitivity of PLD1 activity to ion concentration” value in the test with PLD1 (ARF-stimulated, <10^−8 M to 10^−2 M) was “insensitive”.

In the case of phosphotidylinositol 4-phosphate [PI4P], the “stimulation of PLD1 activity by lipid” value with PLD1 is “Only PI(4,5)P2 and PI(3,4,5)P3 stimulated”.

With `CCCCCCCCCCCCCC(=O)O[C@@H]1[C@@H](C)[C@@]2(O)[C@@H](C=C(CO)C[C@]3(O)C(=O)C(C)=C[C@@H]23)[C@@H]2C(C)(C)[C@]12OC(C)=O` [PMA, phorbolmyristate acetate], the “increase in potency with which PKC- stimulated PLD1” value in the test on PLD1 (100 mM PMA in assay medium) is “approximately 10 fold”. Further, the “increase in maximal effect of PKC- on PLD1” value with PLD1 (PMA in assay medium) is “approximately 1.5 fold”.
